The text below walks through data of ChEMBL document CHEMBL5154826, “Discovery of the Clinical Candidate MAK683: An EED-Directed, Allosteric, and Selective PRC2 Inhibitor for the Treatment of Advanced Malignancies” (J Med Chem, 2022).

≈ marks a conversion by molar mass, not a printed value.

A word on the solubility: it is how much of the substance goes into solution per volume. In general, IC50 refers to the concentration at which inhibition is half-maximal.

The nature of data set [1]: Reduction of H3K27me3 level in human Karpas-422 cells xenografted Athymic BALB/c nude mouse tumor assessed at 10 mg/kg, po twice a day for 21 days. It is filed as functional. Further details: scale not given: the % may be the effect or the level left. To be noted: time 21 day. A general note: A xenograft is tissue or cells of one species grown in another, often human tumour cells in immunodeficient mice.

Data set [2] in a line: High throughput solubility of the compound at pH 7 after 16 to 24 hrs by MS/MS analysis. It is filed as physicochemical. To be noted: buffer, time 16-24 hrs, read-out: solubility.
The nature of data set [3]: High throughput solubility of the compound in FaSSIF after 16 to 24 hrs by MS/MS analysis. It is filed as physicochemical. Particulars: time 16-24 hrs.
Data set [4] can be described thus: Toxicity in Athymic NTac:NIH-Whn nude rat xenografted with human Karpas-422 cells assessed as reduction in body weight at 0.3 to 30 mg/kg, po, qd measured upto 140 days. It is filed as organism-based. Particulars: in vivo, 3360 h, dose 0.3-30 mg/kg, time < 140 day.
Data set [5] in a line: Volume of distribution at steady state in wild type Beagle dog at 2 mg/kg, po or 1 mg/kg, iv after 1 week by LC-MS/MS analysis. It is filed as ADME, organism-based, Canis lupus familiaris. To be noted: in vivo, 168 h, time 1 weeks.
A short description of data set [6]: Terminal half life in Sprague-Dawley rat at 2 mg/kg, po or 1 mg/kg, iv after 1 week by LC-MS/MS analysis. It is filed as ADME, organism-based. To be noted: in vivo, time 1 weeks, read-out: beta t1/2 (converted).
Data set [7] in a line: Plasma clearance in mouse assessed as hepatic extraction. It is filed as ADME, cell-free. Particulars: read-out: ERH.
A short description of data set [8]: Plasma protein binding in mouse at 1 uM measured after 6 hrs LC-MS/MS analysis. To be noted: read-out: PPB (converted). It is filed as ADME, cell-free.
A short description of data set [9]: Plasma protein binding in human assessed as unbound fraction at 1 uM measured after 6 hrs LC-MS/MS analysis. It is filed as ADME, cell-free.
For data set [10], the target named is Synaptic vesicular amine transporter (Homo sapiens, UniProt Q05940). The experiment in a line: Inhibition of vesicular monoamine transporter 2 (unknown origin).
Sequence of Synaptic vesicular amine transporter (Q05940 whole entry): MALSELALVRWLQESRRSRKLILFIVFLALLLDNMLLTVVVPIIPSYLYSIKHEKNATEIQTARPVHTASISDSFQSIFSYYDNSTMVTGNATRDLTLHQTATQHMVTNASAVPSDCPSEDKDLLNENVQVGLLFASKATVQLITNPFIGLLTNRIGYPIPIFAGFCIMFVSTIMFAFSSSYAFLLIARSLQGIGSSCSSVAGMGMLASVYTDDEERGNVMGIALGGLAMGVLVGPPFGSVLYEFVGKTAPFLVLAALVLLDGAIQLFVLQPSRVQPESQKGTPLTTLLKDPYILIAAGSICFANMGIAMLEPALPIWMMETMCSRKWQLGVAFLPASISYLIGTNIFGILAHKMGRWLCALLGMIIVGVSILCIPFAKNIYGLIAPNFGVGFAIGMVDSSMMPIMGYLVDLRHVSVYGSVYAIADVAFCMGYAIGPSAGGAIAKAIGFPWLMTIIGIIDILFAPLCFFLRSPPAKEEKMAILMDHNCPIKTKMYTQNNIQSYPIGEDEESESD
Data set [11] concerns the target Voltage-gated inwardly rectifying potassium channel KCNH2 (Homo sapiens, UniProt Q12809). The experiment in a line: Inhibition of hERG potassium channel in HEK293 cells by Q-patch clamp assay. It is filed as toxicity, cell-based. A general note: The hERG channel carries a current that helps repolarise heart muscle cells.

Sequence of Voltage-gated inwardly rectifying potassium channel KCNH2 (Q12809 whole entry): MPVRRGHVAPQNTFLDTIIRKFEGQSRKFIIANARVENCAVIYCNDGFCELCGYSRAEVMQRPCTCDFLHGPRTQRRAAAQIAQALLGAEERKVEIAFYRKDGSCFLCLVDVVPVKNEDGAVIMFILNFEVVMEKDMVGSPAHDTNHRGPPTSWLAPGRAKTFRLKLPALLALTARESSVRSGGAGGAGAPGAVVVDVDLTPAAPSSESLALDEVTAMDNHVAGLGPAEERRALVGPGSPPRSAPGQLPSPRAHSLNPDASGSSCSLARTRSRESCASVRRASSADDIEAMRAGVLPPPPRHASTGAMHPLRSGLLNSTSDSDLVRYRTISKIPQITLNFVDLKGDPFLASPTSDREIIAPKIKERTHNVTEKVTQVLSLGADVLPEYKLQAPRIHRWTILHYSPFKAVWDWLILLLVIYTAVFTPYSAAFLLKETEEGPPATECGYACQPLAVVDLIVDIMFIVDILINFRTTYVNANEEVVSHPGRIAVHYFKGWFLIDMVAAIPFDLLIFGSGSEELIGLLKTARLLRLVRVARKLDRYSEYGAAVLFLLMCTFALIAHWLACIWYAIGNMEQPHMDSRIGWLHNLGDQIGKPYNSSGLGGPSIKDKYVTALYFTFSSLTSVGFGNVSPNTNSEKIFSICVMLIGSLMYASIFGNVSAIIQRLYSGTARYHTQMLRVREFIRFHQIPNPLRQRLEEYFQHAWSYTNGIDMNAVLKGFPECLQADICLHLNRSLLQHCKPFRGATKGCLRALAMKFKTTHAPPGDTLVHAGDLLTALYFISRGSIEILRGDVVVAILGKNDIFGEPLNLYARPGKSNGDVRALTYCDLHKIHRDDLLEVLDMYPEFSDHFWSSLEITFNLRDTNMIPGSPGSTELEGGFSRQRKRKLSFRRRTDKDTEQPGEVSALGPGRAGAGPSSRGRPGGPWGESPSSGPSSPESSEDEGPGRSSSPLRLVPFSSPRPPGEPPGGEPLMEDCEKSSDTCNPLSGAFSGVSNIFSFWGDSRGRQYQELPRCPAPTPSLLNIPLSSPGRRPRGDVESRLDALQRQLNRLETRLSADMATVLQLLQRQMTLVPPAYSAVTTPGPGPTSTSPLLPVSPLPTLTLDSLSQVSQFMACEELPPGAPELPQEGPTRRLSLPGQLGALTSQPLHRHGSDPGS

As to `Cc1ncccc1-c1cnc(NCc2c(F)ccc3c2CCO3)n2cnnc12`, the Activity in [1] is listed as more than 50%; in data set [4], “Non-Toxic”. In addition, the solubility in [2] was found to be 19 µM (≈ 7.15 µg/mL); in [3], 25 µM (≈ 9.41 µg/mL). In data set [5], the Vdss came out at 1 L/kg. Further, the half-life in [6] was 3.2 h. Further, in [7], the hepatic extraction ratio came out at 0.42. Also, the values for the fraction unbound at 6 h, 1 µM in data set [8] and in [9] were 0.15 and 0.08, respectively. Moreover, the IC50 was 1800 nM in [10] and more than 30000 nM in [11].
